Results from patent publication EP0806422A2, “Anti-cataract agent” (Senju Pharmaceutical Co., Ltd., priority 1996, dated 1997).

How the values were obtained:
Diabetic Rats = assay: Cataract formation in streptozotocin-induced diabetic rats, lens changes evaluated by slit lamp; assay type: in vivo, Sprague Dawley rats; conditions: 0.06% drug in rat chow; for cataract formation: Figure 1, result of Test Example 2; for cataract formation / onset and severity of sugar cataract formation / progress of lens changes to the vacuole stage: diabetic rats; for Lens changes were observed at: days after injection of streptozotocin, untreated diabetic lens changes began at 21 days; for onset and severity of sugar cataract formation: compared with control chow; for progress of lens changes to the vacuole stage: in untreated diabetic rats vacuoles clearly visible by 35 days
Experimental: Diabetes was induced in 40 young (60-80 g) Sprague Dawley rats by tail vein injection of 75 mg/kg streptozotocin in Tris-HCl and divided into 3 groups. After 4 days all rats were tested with glucostrips (tail blood), and those with blood sugar levels less than 250 mg % were reinjected with 70 mg/kg streptozotocin dissolved in Tris-HCl.
Drug administration was carried out by adding 0.06% drug to rat chow. The rat chow with added drug was formed by mixing appropriate amounts of each drug with powdered rat chow and then cold pressing the mixture into different size pellets for identification. The rat chow was commercially prepared by BioServe (Frenchtown, N.J.). Subsequently, each compound was dissolved in 500 ml of Tris buffer and mixed with 5 kg of standard rat chow pellets until all liquid was absorbed into the pellets and the wet pellets were dried for 24 hours at 60°C. Rat chow not containing drug was fed to a control group of rats.
Lens changes were evaluated by portable slit lamp at approximately 3-6 day intervals in the diabetic rats. Lens changes were evaluated on a scale at 0 to 3 as follows: 0 clear lens; 1 vacuoles present; 2 cortical opacities; 3 hypermature cataract. The severity of lens changes within the vacuole and cortical stage was further subjectively defined as follows: 1.2 peripheral equatorial vacuoles; 1.4 obvious formation 50% of the lens; 1.6 obvious vacuole formation 50% of lens; 1.8 total lens covered by vacuoles; 2.2 start of cortical changes with posterior capsule still visible by slit lamp; 2.4 advanced cortical opacities covering most of lens; cortical opacity expanded to whole lens; 2.8 total lens is white in appearance.

[1] = target: T1, rat lens aldose reductase (Rattus norvegicus, UniProt P07943); assay: Enzyme assay: inhibition of aldose reductase, monitored spectrophotometrically as decrease in NADPH absorbance at 340 nm; assay type: biochemical; conditions: 1x10^-4 M concentration; purified recombinant rat aldose reductase, in vitro; read-out: inhibition rate of aldose reductase
T1 construct: made in house; host or cells: Escherichia coli
Experimental: The activity of purified recombinant rat aldose reductase (Old SE, Sato S, Kador PF. and Carper DA.: In vitro expression of rat lens aldose reductase in Escherichia coli., Proc. Nat. Acad. Sci. USA, 87:4942-4945, 1990) was assayed by spectrophotometrically monitoring decrease in absorbance of NADPH (reduced nicotinamide adenine dinucleotide phosphate) at 340 nm (Kador PF., Goosey JD., Sharpless NE., Kolish J, and Miller DD.: Stereoscopic inhibition of aldose reductase, European J., Med. Chem. 16: 293-298, 1981).
One enzyme unit was defined as amount of enzyme consuming one micromole of NADPH under the assay conditions.
With reference to 1-N,N-dimethylsulfamoyl-4-(2-pyrimidinyl)piperazine (SRA-1; product of Example 3) and 4-((4-dimethylsulfamoyl)piperazino)-2,6-dimethoxypyrimidine (SRA-2; product of Example 1), their in vitro ability to inhibit rat lens aldose reductase were determined.

inhibition at 100 µM [1] | SMILES | cataract formation (Diabetic Rats) | Lens changes were observed at (Diabetic Rats) | onset and severity of sugar cataract formation (Diabetic Rats) | progress of lens changes to the vacuole stage (Diabetic Rats)
5% | CN(C)S(=O)(=O)N1CCN(c2ncccn2)CC1 [SRA-1, 1-N,N-dimethylsulfamoyl-4-(2-pyrimidinyl)piperazine] | inhibited | 39 days | delayed | did not progress to the vacuole stage
13% | COc1cc(N2CCN(S(=O)(=O)N(C)C)CC2)nc(OC)n1 [SRA-2, 4-((4-dimethylsulfamoyl)piperazino)-2,6-dimethoxypyrimidine] | inhibited | 45 days | delayed | did not progress to the vacuole stage
